Residues, ends and D or L forms follow the SMILES beside them. *: point of attachment. X1 = CCOC(=O)/C=C/[C@H](CC(C)C)N*
Assay: Half life in human plasma
Assay type: ADME, cell-free

Row | half-life | SMILES
1 | > 6 h | CCOC(=O)/C=C/[C@H](CC(C)C)NC(=O)C[C@@H]1NC(=O)[C@H](CC(C)C)NC(=O)[C@H](CC(C)C)NC(=O)[C@H](Cc2ccccc2)NC1=O (cyclo(D(X1)FLL))
2 | > 6 h | CCOC(=O)/C=C/[C@H](CC(C)C)NC(=O)C[C@@H]1NC(=O)[C@H](CO)NC(=O)[C@H](C(C)C)NC(=O)[C@H](Cc2ccccc2)NC1=O (cyclo(D(X1)FVS))
3 | > 6 h | CCOC(=O)/C=C/[C@H](CC(C)C)NC(=O)CC[C@@H]1NC(=O)[C@H](CC(C)C)NC(=O)[C@H](CC(C)C)NC(=O)[C@H](Cc2ccccc2)NC1=O (cyclo(E(X1)FLL))

From ChEMBL document CHEMBL1142341, “Vinyl ester-based cyclic peptide proteasome inhibitors” (Bioorg Med Chem Lett, 2008)
